Measured values from article PMC4667779 (Bioorganic & medicinal chemistry, 2014).
Where two headings read alike, the source gives them in different places.

Biological target: Pantothenate synthetase (PanC) from Mtb (Mycobacterium tuberculosis, UniProt P9WIL5)
Format: biochemical

Pantothenate synthetase (PanC) from Mtb, sequence (P9WIL5 whole entry, looked up): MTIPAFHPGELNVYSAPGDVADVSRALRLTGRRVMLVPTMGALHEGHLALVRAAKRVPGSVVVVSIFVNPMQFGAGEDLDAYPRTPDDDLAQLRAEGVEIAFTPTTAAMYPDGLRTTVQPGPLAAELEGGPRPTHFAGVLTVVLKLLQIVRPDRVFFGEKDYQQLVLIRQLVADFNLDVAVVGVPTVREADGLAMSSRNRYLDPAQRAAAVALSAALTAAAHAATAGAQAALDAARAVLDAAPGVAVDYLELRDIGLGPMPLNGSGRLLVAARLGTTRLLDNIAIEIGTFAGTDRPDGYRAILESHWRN

Row | Structure (SMILES) | fold loss in affinity relative to 1a (ratio of Ki values) | other results
1 | CC(C)(C)[C@@H](O)C(=O)NS(=O)(=O)OC[C@H]1O[C@@H](n2cnc3c(N)ncnc32)[C@H](O)[C@@H]1O [1a, 5′-O-[N-((R)-2-Hydroxy-3,3-dimethylbutanoyl)sulfamoyl]adenosine] |  | modality of inhibition with respect to pantoic acid (double-reciprocal plots, fixed ATP and saturating β-alanine): competitive inhibitor towards pantoic acid
2 | CC(C)(C)[C@@H](O)C(=O)NS(=O)(=O)OC[C@H]1O[C@@H](n2cnc3c(N)ncnc32)[C@@H](O)[C@@H]1O [compound 2, 5′-O-[N-((R)-2-Hydroxy-3,3-dimethylbutanoyl)sulfamoyl]vidarabine] | 4–6 fold | 
3 | CC(C)(C)[C@@H](O)C(=O)NS(=O)(=O)OC[C@H]1O[C@@H](n2cnc3c(N)ncnc32)[C@H](F)[C@@H]1O [compound 3, 2′-Deoxy-2′-fluoro-5′-O-[N-((R)-2-Hydroxy-3,3-dimethylbutanoyl)sulfamoyl] adenosine] |  | fold loss in affinity relative to 1a: 2–3 fold
4 | CC(C)(C)[C@@H](O)C(=O)NS(=O)(=O)OC[C@H]1C[C@@H](n2cnc3c(N)ncnc32)[C@H](O)[C@@H]1O [compound 4, 5′-O-[N-((R)-2-Hydroxy-3,3-dimethylbutanoyl)sulfamoyl]aristeromycin] | 2–3 fold | 
5 | CC(C)(CO)[C@@H](O)CNS(=O)(=O)NC[C@H]1O[C@@H](n2cnc3c(N)ncnc32)[C@H](O)[C@@H]1O [compound 5, 5′-Amino-5′-deoxy-5′-N-[N-((R)-2,2-dimethylbutane-1,3-diol-4-yl)sulfamoyl] adenosine] | approximately 13 fold | 
